# From US7943551B2, “3-cyclopropyl-4-(3-thiobenzoyl) pyrazoles and their use as herbicides” (Bayer Cropscience AG, priority 2007, dated 2011)
# Experiments:
# Assay type in all cases: in vivo
# Veronica persica = assay: Post-emergence herbicidal action; settings: 20 g of a.i./ha, read-out: Herbicidal activity in % against VERPE
# Procedure: (§1) Seeds of mono- and dicotyledonous harmful plants are placed in sandy loam in cardboard pots, covered with soil and grown in the greenhouse under good growth conditions. Two to three weeks after sowing, the test plants are treated at the three-leaf stage. The compounds according to the invention, which are formulated as wettable powders or as emulsion concentrates, are sprayed at an application rate of 600 to 800 l of water/ha (converted) in a dosage of 80 grams per hectare onto the surface of the green plant parts. The visual scoring of the damage to the harmful plants is carried out 3-4 weeks after the treatment. Here, the compounds of Nos. 1-39, 1-40, 1-1382 and 1-2091 show an activity of at least 90% against Echinochloa crus galli. The compounds of Nos. 1-3, 1-44 and 1-2091 shown an activity of at least 90% against Abutilon theophrasti. The compounds of Nos. 1-39, 1-40 and 1-1382 show an activity of at least 90% against Veronica persica. The compounds of Nos. 1-3, 1-38, 1-39, 1-1406 and 1-1407 show an activity of at least 90% against Stellaria media.
# (§2) The comparative tests of Tables 1 to 24 below show the superiority of the compounds according to the invention over the compounds known from the prior art.
# (§3) • ABUTH Abutilon theophrasti ALOMY Alopecurus myosuroides • AMARE Amaranthus retroflexus AVEFA Avena fatua • CHEAL Chenopodium album ECHCG Echinochloa crus galli • GALAP Galium aparine LOLMU Lolium multiflorum • MATIN Matricaria inodora PHBPU Pharbitis purpureum • POLCO Fallopia convolvulus STEME Stellaria media • VERPE Veronica persica VIOTR Viola tricolor • XANST Xanthium strumarium Crop Plants • GLXMA Glycine max (soybeans) TRZAS Triticum aestivum (wheat) • ZEAMX Zea mays (corn)
# Viola tricolor = assay: Post-emergence herbicidal action; settings: 20 g of a.i./ha, read-out: Herbicidal activity in % against VIOTR
# Procedure: as §1, §2, §3
# Galium aparine [1] = assay: Post-emergence herbicidal action; settings: 20 g of a.i./ha
# Procedure: as §1, with “The compounds according to the invention, which are formulated as wettable powders or as emulsion concentrates, are sprayed at an application rate of 600 to 800 l of water/ha (converted) in a dosage of 80 grams per hectare onto the surface of the green plant parts.” left out
# as §2, §3
# [2] = tested on: Triticum aestivum (wheat); assay: Post-emergence damage of crop plants; settings: 20 g of a.i./ha, crop plant wheat
# Procedure: as §1, with “The compounds according to the invention, which are formulated as wettable powders or as emulsion concentrates, are sprayed at an application rate of 600 to 800 l of water/ha (converted) in a dosage of 80 grams per hectare onto the surface of the green plant parts.” left out
# as §2, §3
# Zea mays (corn) = assay: Post-emergence damage of crop plants; settings: 20 g of a.i./ha, crop plant corn
# Procedure: as §1, with “The compounds according to the invention, which are formulated as wettable powders or as emulsion concentrates, are sprayed at an application rate of 600 to 800 l of water/ha (converted) in a dosage of 80 grams per hectare onto the surface of the green plant parts.” left out
# as §2, §3
# Chenopodium album = assay: Pre-emergence herbicidal action; settings: 320 g of a.i./ha
# Excerpt: (§4) Seeds or rhizome pieces of mono- and dicotyledonous harmful plants are placed in sandy loam in pots of a diameter of 9 to 13 cm and covered with soil. The herbicides, formulated as emulsifiable concentrates or dusts, are applied to the surface of the covering soil in the form of aqueous dispersions or suspensions or emulsions at an application rate of 300 to 800 l of water/ha (converted), at a dosage of 320 grams per hectare. For further cultivation of the plants, the pots are then kept in a greenhouse under optimum conditions. The visual scoring of the damage to the harmful plants is carried out 3-4 weeks after the treatment. Here, the compounds of Nos. 1-3, 1-15, 1-44 and 1-1407 show an activity of at least 90% against Echinochloa crus galli. The compounds of Nos. 1-15, 1-45, 1-1407 and 1-1419 show an activity of at least 90% against Abutilon theophrasti. The compounds of Nos. 1-3, 1-45, 1-1406 and 1-1418 show an activity of at least 90% against Amaranthus retroflexus. The compounds of Nos. 1-44, 1-1406, 1-1407 and 1-1419 show an activity of at least 90% against Stellaria media.
# as §2, §3
# Galium aparine [3] = assay: Pre-emergence herbicidal action; settings: 320 g of a.i./ha
# Excerpt: as §4, §2, §3
# Glycine max (soybeans) = assay: Pre-emergence damage of crop plants; settings: 320 g of a.i./ha, crop plant soybeans
# Excerpt: as §4, §2, §3
# [4] = tested on: Triticum aestivum (wheat); assay: Pre-emergence damage of crop plants; settings: 320 g of a.i./ha, crop plant wheat
# Excerpt: as §4, §2, §3
# Alopecurus myosuroides = assay: Post-emergence herbicidal action; settings: 80 g of a.i./ha
# Procedure: as §1, §2, §3
# Avena fatua = assay: Post-emergence herbicidal action; settings: 80 g of a.i./ha
# Procedure: as §1, §2, §3
# Echinochloa crus galli = assay: Post-emergence herbicidal action; settings: 80 g of a.i./ha, visual scoring 3-4 weeks after treatment, read-out: Herbicidal activity in % against ECHCG
# Procedure: as §1, §2, §3
# Lolium multiflorum = assay: Post-emergence herbicidal action; settings: 80 g of a.i./ha
# Procedure: as §1, §2, §3
# Abutilon theophrasti = assay: Post-emergence herbicidal action; settings: Abutilon theophrasti, 80 g of a.i./ha, visual scoring 3-4 weeks after treatment, read-out: Herbicidal activity in % against ABUTH
# Procedure: as §1, with “The compounds according to the invention, which are formulated as wettable powders or as emulsion concentrates, are sprayed at an application rate of 600 to 800 l of water/ha (converted) in a dosage of 80 grams per hectare onto the surface of the green plant parts.” left out
# as §2, §3
SMILES,pest or weed control at 20 g/ha (Veronica persica),pest or weed control at 20 g/ha (Viola tricolor),Herbicidal activity in % against GALAP (Galium aparine [1]),Damage to TRZAS [2],Damage to ZEAMX (Zea mays (corn)),Herbicidal activity in % CHEAL (Chenopodium album),Herbicidal activity in % GALAP (Galium aparine [3]),Damage to GLXMA (Glycine max (soybeans)),Damage to TRZAS [4],Herbicidal activity in % against ALOMY (Alopecurus myosuroides),Herbicidal activity in % against AVEFA (Avena fatua),pest or weed control at 80 g/ha (Echinochloa crus galli),Herbicidal activity in % against LOLMU (Lolium multiflorum),pest or weed control at 80 g/ha (Abutilon theophrasti)
"CCS(=O)(=O)c1c(S(C)(=O)=O)ccc(C(=O)c2c(C3CC3)nn(C)c2O)c1C [drawing 36, reference compound]",20%,20%,20%,80,10,,,,,,,,,
COCCS(=O)(=O)c1c(S(C)(=O)=O)ccc(C(=O)c2c(C3CC3)nn(C)c2O)c1C [drawing 35],90%,70%,50%,0,0,,,,,,,,,
"CCS(=O)(=O)c1c(S(C)(=O)=O)ccc(C(=O)c2c(C3CC3)nn(C)c2O)c1C [drawing 38, reference compound]",,,,,,90%,90%,50,50,,,,,
Cc1c(C(=O)c2c(C3CC3)nn(C)c2O)ccc(S(C)(=O)=O)c1S(=O)(=O)CC1CC1 [drawing 37],,,,,,100%,100%,0,0,,,,,
"Cn1nc(C2CC2)c(C(=O)c2ccc(Cl)c(S(C)(=O)=O)c2Cl)c1O [drawing 56, reference compound]",,,,,,,,,,20%,20%,30%,20%,60%
Cn1nc(C2CC2)c(C(=O)c2ccc(Cl)c(S(=O)(=O)CC3CC3)c2Cl)c1O [drawing 55],,,,,,,,,,70%,50%,90%,60%,70%
